Laboratory results published in patent publication US20230364130A1, “INHALED ARGON FOR TREATING A PATIENT SUFFERING FROM CARDIOVASCULAR DISEASE” (L'Air Liquide, Sociëtë Anonyme Pour l'Etude et …, priority 2020, published 2023).

Key:
rabbits [1] = assay: model of multiple organ failure by clamping the supraceliac aorta (30 min) then reperfusion; hemodynamics and acid-base parameters; type: in vivo, rabbit (male, New Zealand breed)
Method: (§1) More specifically, the model used is a lagomorphic model of multiple organ failure by clamping the supraceliac aorta.
The rabbits were sedated by intravenous injection (Zoletil® 15 mg/kg), then intubated to be ventilated. Anesthesia is completed by intravenous administration of thiopental (10 mg/kg) and methadone hydrochloride (Comfortan® 0.6 mg/kg); and maintained as needed with thiopental boluses.
(§2) After a period of hemodynamic stabilization, the supraceliac aorta is clamped with an atraumatic clamp for 30 minutes. In order to avoid any thrombus formation at the level of the clamping, a bolus of unfractionated heparin (250 IU/kg) is administered to the rabbit in question, 5 minutes before clamping.
The effectiveness of the clamping is verified by the absence of an aortic pulse downstream of the clamping. Similarly, the absence of thrombus is assessed by the presence of an aortic pulse after unclamping.
(§3) The rabbits are separated into 2 groups: • a Control Group (CG) inhaling an N2/O2 binary gas mixture containing 30% of oxygen and the rest as nitrogen (vol %); • an Argon Group (AG) according to the invention inhaling an Ar/O2 binary gas mixture containing 30% of oxygen and the rest as argon (vol %), i.e. 70 vol % of argon.
The cardiac output is measured by a cardiac output valve before, during and after ischemia (Isch.) of the aorta.

rabbits [2] = assay: additional preliminary study: suprarenal then supraceliac aortic clamping, calculated pulmonary vascular resistance; type: in vivo, rabbit; details: argon 70 vol % / oxygen 30 vol %, during suprarenal then supraceliac aortic clamping
Method: A first clamping of the aorta of these rabbits was performed above the renal artery, followed by clamping at the supraceliac level. The objective is to see the effect of argon during a gradual modification of systemic resistance.

rabbits [3] = assay: histology score of organs after supraceliac aortic clamping and reperfusion; type: in vivo, rabbit (male, New Zealand breed)
Method: as §1, §2, §3
FIG. 3 represents the histology score of several organs: heart, liver, lungs, kidneys and jejunum (i.e. intestines).

[4] = after 300 minutes of reperfusion

With [Ar] [argon] the “pH, HCO3- and lactate parameters vs Control Group” value (rabbits [1]; acid-base biochemical parameters) was “significantly preserved within normal values”, the “norepinephrine dose required to maintain a stable arterial pressure” value (rabbits [1]; after 15 minutes of reperfusion) was 1.4 ± 0.6 µg/kg/min and the cardiac output (rabbits [1]; after 30 minutes of gas inhalation, before clamping) was 99 ± 10 mL/min/kg. For the same compound, the cardiac output (rabbits [1]; [4]) was 60 ± 4 mL/min/kg, the pH (rabbits [1]; [4]) was 7.16 and the “cardiac output vs Control Group” value (rabbits [1]; after unclamping, up to 240 minutes of reperfusion) was “no significant difference between the groups”. For the same compound, the “norepinephrine dose required to maintain a stable arterial pressure” value (rabbits [1]; at the end of the 300-minute monitoring) was 3.3 ± 1.6 µg/kg/min, the cardiac output (rabbits [1]; at the start of the experiment, inhaled Ar/O2 70/30 vol %) was 108 ± 7 mL/min/kg and the mean arterial pressure (rabbits [1]; during the ischemia phase following clamping) was 130±7 mmHg. The “mean arterial pressure vs Control Group” value (rabbits [1]; during the reperfusion phase, after unclamping) was “no significant difference between the groups”, the “attenuated decrease of cardiac output vs Control Group” value (rabbits [1]; immediately after beginning of surgery, upon clamping) was “approximately 20%” and the “norepinephrine doses to maintain mean arterial pressure vs Control Group” value (rabbits [1]; throughout reperfusion) was “significantly lower”. The “heart rate vs Control Group” value (rabbits [1]; throughout the protocol) was “no significant difference between the groups”, the “pulmonary vascular resistance vs animals exposed to oxygen-enriched air” value (rabbits [2]) was “immediately reduced” and the “jejunal lesions vs Control Group” value (rabbits [3]; jejunum, histology) was “no difference”. For the same compound, the “tubular necrosis lesions vs Control Group” value (rabbits [3]; kidneys, histology) was “significantly greater in the Control Group than in the Argon Group”, the “histology score, centrilobular clarification vs Control Group” value (rabbits [3]; liver) was “significantly lower” and the “congestive and edematous lesions of the lung parenchyma vs Control Group” value (rabbits [3]; lungs, histology) was “the difference was not significant”. For the same compound, the “subendocardial necrosis lesions vs Control Group” value (rabbits [3]; myocardium, histology) was “no significant difference”.
